Among the data in PubChem BioAssay (NCI) are GI50 and TGI values, retold here.

Experiment in all cases: NCI anticancer screen, dose series, 48 h
Test [1] has as its system EKVX NSCLC.
Test [2] deals with HOP-62 NSCLC.
In test [3] the test system is HOP-92 NSCLC.
The test system of test [4] is KM12 colon.
For test [5], the system named is MDA-MB-231 breast.
In test [6] the test system is SF-539 CNS.
Test [7] deals with SNB-75 CNS.
The subject of test [8] is UACC-257 melanoma.
Test [9] has as its system UO-31 renal.
The subject of test [10] is SN12C renal.

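1) Cells in 96-well plates. 2) Compound, 48 h, 5 concentrations. 3) Linear interpolation between surrounding doses. 4) Unreached endpoint = highest concentration. Abbreviation: GI50, concentration required for 50% inhibition of growth. TGI denotes the concentration required for complete inhibition of growth.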

As to `COc1cc2c3c(n(CCCN4CCSCC4)c(=O)c2cc1OC)-c1cc2c(cc1C3=O)OCO2`, the GI50 was above 100 µM in [1]; 26.2 µM in test [2]; 19.4 µM in test [3]; above 100 µM in test [4]; 25.2 µM in [5]; 18.2 µM in test [6]. For the same compound, the GI50 in test [7] is 12.9 µM; in [8], above 100 µM; in [9], above 100 µM. Further, the TGI was above 100 µM in [1]; 73.7 µM in [2]; 46.3 µM in test [3]; above 100 µM in test [4]; 89.9 µM in test [5]; 34.5 µM in [6]. The TGI was 27.5 µM in test [7], above 100 µM in test [8] and above 100 µM in test [9].

For `O=C1C2C(C(=O)N1CC[Se][Se]CCN1C(=O)C3C(C1=O)[C@H]1C=C[C@@H]3C1)[C@H]1C=C[C@@H]2C1` (stereo not given in full), the GI50 in [1] is 0.274 µM; in test [2], 0.488 µM; in test [3] it was 0.575 µM; in test [4], 1.35 µM; in [5], 0.595 µM; in test [6], 0.223 µM. In addition, the GI50 in test [7] was 0.171 µM; in test [8], 0.452 µM; in test [9] it was 0.247 µM. Moreover, the TGI in test [1] is 0.969 µM; in test [2], 2.66 µM; in test [3], 2.29 µM; in [4] it was 10.2 µM; in test [5], 5.48 µM; in test [6], 0.467 µM. Besides, the results for the TGI in test [7], in [8] and in [9] were 0.488 µM, 3.14 µM and 0.964 µM, respectively.

Consider `CN(C)c1ccc2c(c1)OC(N)=C(C#N)C2c1ccc2c(c1)CCCN2C` (stereo not given), for which the GI50 in [1] is 3.79 µM; in test [2], 1.83 µM; in test [3], 2.82 µM; in [4], 0.783 µM; in test [5], 3.52 µM; in [6] it was 2.28 µM. Also, the GI50 in test [7] was 2.27 µM; in test [8], 10.5 µM; in test [9] it was 5.15 µM. In addition, the TGI in [1] was above 100 µM; in test [2] it was 54.1 µM; in [3] it was 57 µM; in [4], above 100 µM; in test [5], above 100 µM; in test [6], 8.16 µM. The results for the TGI in [7], in [8] and in test [9] were above 100 µM, 45.1 µM and 78.5 µM, respectively.

Turning to `COC(=O)[C@]1(C)CCCC2(C)C3=C(CCC21)CC1(CC3)SCCS1` (stereo not given in full), the TGI in test [1], in test [2], in test [3], in [4], in test [5] and in [6] was above 10 µM in each case. For the same compound, the TGI in test [10], in test [7] and in test [8] was above 10 µM in each case.

With `COC(=O)c1ccc2c(c1)C(=O)c1c-2n(CCCCl)c(=O)c2cc(OC)c(OC)cc12`, the GI50 in test [1] is above 100 µM; in test [2], above 100 µM; in [4] it was above 100 µM; in test [5], above 100 µM; in test [10] it was above 100 µM; in test [7] it was 12.9 µM. Moreover, the GI50 in [8] and in test [9] was above 100 µM throughout. In addition, the TGI is above 100 µM in [1]; above 100 µM in [2]; above 100 µM in test [4]; above 100 µM in test [5]; above 100 µM in test [10]; 91.6 µM in test [7]. Moreover, the TGI in [8] and in test [9] was above 100 µM each time.

As to `OC1CSCCSCCCSCCSC1`, the TGI in test [1], in [2], in test [3], in test [5], in test [6] and in test [10] was above 100 µM in each case. The TGI in [7], in [8] and in test [9] was above 100 µM throughout.

Regarding `O=C1c2ccccc2-c2c1c1ccc([N+](=O)[O-])cc1c(=O)n2CCCCl`, the GI50 is above 100 µM in test [1]; 43.8 µM in test [2]; 22.9 µM in test [3]; above 100 µM in test [4]; 11.3 µM in [5]; 27.1 µM in [10]. Also, the GI50 in test [8] was above 100 µM; in test [9], 6.4 µM. For the same compound, the TGI in test [1] was above 100 µM; in [2], above 100 µM; in test [3], above 100 µM; in test [4], above 100 µM; in [5] it was 57.7 µM; in test [10], above 100 µM. For the same compound, the TGI in test [8] and in test [9] was above 100 µM each time.

Take `Cc1ccc(C(=O)N2C/C(=C/c3ccccc3)C(=O)/C(=C/c3ccccc3)C2)cc1`: the GI50 was 4.96 µM in test [2]; 10.7 µM in test [3]; 1.43 µM in test [4]; 4.61 µM in [5]; 9.66 µM in test [6]; 7.34 µM in test [10]. Also, the GI50 is 2.58 µM in test [7], 10.1 µM in test [8] and 10.2 µM in test [9]. In addition, the TGI in test [2] is 61.3 µM; in [3], above 100 µM; in test [4], 6.94 µM; in test [5], above 77.2 µM; in [6], 72.2 µM; in [10] it was above 100 µM. Further, the TGI was 16.4 µM in [7], above 100 µM in test [8] and above 100 µM in test [9].

As to `CCN(CC)Cc1cc(Nc2cc(C(F)(F)F)c(C#N)c3nc4ccccc4n23)ccc1O`, the GI50 in test [1] is 0.526 µM; in [2], 3.05 µM; in [3], 0.59 µM; in test [4], 2.42 µM; in test [5] it was 1.95 µM; in [6] it was 2.7 µM. In addition, the GI50 in test [7] is 1.41 µM; in [8], 1.93 µM; in test [9], 1.12 µM. Also, the TGI was 8.39 µM in test [1]; 11.4 µM in test [2]; 3.48 µM in test [3]; 8.22 µM in test [4]; 5.33 µM in test [5]; 11 µM in [6]. In addition, the TGI in test [7] stood at 7.54 µM; in [8] it was 7.86 µM; in test [9] it was 3.1 µM.
